Assay [1] has as its system C. albicans MMX 2000 ATCC 10231. Put plainly: MIC assay (CLSI microdilution). It is filed as cell-based. The settings on record: Candida albicans, ATCC10231, RPMI plus 0.002% Tween-80; read-out: MIC.
In assay [2] the test system is C. neoformans MMX 0634 ATCC 90112. Briefly: MIC assay (CLSI microdilution). It is filed as cell-based. Particulars: Cryptococcus neoformans, ATCC90112, 72 h, 72 hour; RPMI plus 0.002% Tween-80; read-out: MIC. (In general: Dilution methods test growth across graded concentrations, often in twofold steps.)
Assay [3] deals with A. fumigatus MMX 5944. Put plainly: MIC/MEC assay (CLSI microdilution). It counts as cell-based. The settings on record: Aspergillus fumigatus, MMX5944, 48 h; for minimal effective concentration: RPMI plus 0.002% Tween-80; for MIC: RPMI plus 0.002% Tween-80, read-out: MIC. An outline of the steps: (§1)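 Aspergillus isolates received approx. 0.2-2.5×10^4 CFU/mL final inoculum in RPMI-1640 plus 0.002% Tween-80, per CLSI microdilution. MMX 5280 was additionally run without Tween-80. Test compounds were serially diluted two-fold in 95% ethanol.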

The test system of assay [4] is A. fumigatus MMX 6781 ATCC MYA-4609. Put plainly: MIC/MEC assay (CLSI microdilution). It is filed as cell-based. Particulars: Aspergillus fumigatus; for MIC: 48 h, RPMI plus 0.002% Tween-80, read-out: MIC; for minimal effective concentration: RPMI plus 0.002% Tween-80, 48 hr. An outline of the steps:
as §1

Assay [5] concerns A. fumigatus MMX 6782 ATCC 13073. Briefly: MIC/MEC assay (CLSI microdilution). It is filed as cell-based. Particulars: Aspergillus fumigatus, ATCC13073, 48 h; for minimal effective concentration: RPMI plus 0.002% Tween-80, read-out: MEC; for MIC: RPMI plus 0.002% Tween-80, read-out: MIC. An outline of the steps:
as §1

Assay [6] deals with A. fumigatus from Aureogen. Briefly: MIC/MEC assay (CLSI microdilution). It is filed as cell-based. Particulars: Aspergillus fumigatus, 48 h; for minimal effective concentration: RPMI plus 0.002% Tween-80; for MIC: RPMI plus 0.002% Tween-80, read-out: MIC. In short, it runs like this:
as §1

Assay [7] has as its system A. niger MMX 0624 ATCC 16888. Put plainly: MIC/MEC assay (CLSI microdilution). Particulars: Aspergillus niger, ATCC16888, 48 h; for minimal effective concentration: RPMI plus 0.002% Tween-80, read-out: MEC; for MIC: RPMI plus 0.002% Tween-80, read-out: MIC. It is filed as cell-based. In short, it runs like this:
as §1

For assay [8], the system named is A. flavus MMX 5948. Briefly: MIC/MEC assay (CLSI microdilution). It is filed as cell-based. The settings on record: Aspergillus flavus, MMX5948, 48 h; for minimal effective concentration: RPMI plus 0.002% Tween-80; for MIC: RPMI plus 0.002% Tween-80, read-out: MIC. In short, it runs like this:
as §1

Assay [9] relates to A. fumigatus MMX 5280 ATCC MYA-3626. Briefly: MIC/MEC assay (CLSI microdilution). It is filed as cell-based, Aspergillus fumigatus. Particulars: Aspergillus fumigatus, 48 h. In short, it runs like this: as §1
The test system of assay [10] is C. parapsilosis MMX 2323 ATCC 22019. Put plainly: MIC assay (CLSI microdilution). It counts as cell-based, Candida parapsilosis. The settings on record: read-out: MIC. In short, it runs like this: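 Broth microdilution MIC testing of Candida parapsilosis ATCC 22019 followed CLSI methods in RPMI-1640, with or without 0.002% Tween-80. Yeast grown 48 hours at 35° C on Sabouraud dextrose agar was suspended to a 0.5 McFarland standard and diluted 1:100 to roughly 0.5-2.5×10^3 CFU/mL. The MIC was the lowest concentration preventing visible growth.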

The subject of assay [11] is C. albicans MMX 2000 ATCC 10231. Put plainly: MIC assay (CLSI microdilution). It is filed as cell-based. The settings on record: Candida albicans, ATCC10231, Without Tween-80; read-out: MIC.
Setting [12] is: RPMI plus 0.002% Tween-80, read-out: MEC.
[13] abbreviates: RPMI plus 0.002% Tween-80, read-out: MIC.
Where [14] appears, read: Without Tween-80, read-out: MEC.
Where [15] appears, read: Without Tween-80, read-out: MIC.
The mark [16] stands for this setting: ATCC22019, RPMI plus 0.002% Tween-80.

Values after ≈ are worked out from the molar mass of the structure shown. Read-outs that look alike come from different tables or passages of the source. Numbered stars: 1 amine (or outer) side, 2 acyl side, 3 side chain; on linkers, the order of the positions; unused ones are H or OH. Square brackets hold non-standard residues; d marks the D form. Peptide text beside a SMILES is read from it. X8 = CC(=O)N1CCN(c2ccc(-c3cccc(C[C@@H](C(=O)[*:2])N(C)[*:1])c3)cn2)CC1; X9 = CN1CCN(c2cccc(-c3cccc(C[C@@H](C(=O)[*:2])N(C)[*:1])c3)n2)CC1; Hmp(2R,3S) = CC[C@H](C)[C@@H](O)C(=O)O; NMeVal(β-OH) = CN[C@H](C(=O)O)C(C)(C)O; NMeV = CN[C@H](C(=O)O)C(C)C

A word on the MIC: it is the smallest concentration in the dilution series that meets the test's criterion for growth inhibition.

As to `CC[C@H](C)[C@@H]1NC(=O)[C@@H]2CCCN2C(=O)[C@H](Cc2cccc(-c3ccc(N4CCN(C(C)=O)CC4)nc3)c2)N(C)C(=O)[C@H](Cc2ccccc2)NC(=O)[C@H](C(C)C)N(C)C(=O)[C@@H]([C@@H](C)CC)OC(=O)[C@H](C(C)(C)O)N(C)C(=O)[C@H](CC(C)C)NC(=O)[C@H](C(C)C)N(C)C1=O` [Compound 32] (cyclo(F[X8]PI[NMeV]L[NMeVal(β-OH)][Hmp(2R,3S)][NMeV])), the minimum inhibitory concentration (MIC) in [1] is 0.03 µg/mL; in [2], 2 µg/mL; in [3], more than 64 µg/mL; in assay [4] it was more than 64 µg/mL; in [5], more than 64 µg/mL; in assay [6], more than 64 µg/mL. In addition, the MIC in [7] is 1 µg/mL; in [8] it was 1 µg/mL; in assay [9] (setting [13]) it was more than 64 µg/mL; in assay [9] (setting [15]) it was more than 64 µg/mL; in assay [10] (setting [16]) it was 0.25 µg/mL; in assay [10] (ATCC22019, Without Tween-80), 2 µg/mL (≈ 1.53 µM). Further, the minimum inhibitory concentration (MIC) in [11] was determined as 2 µg/mL (≈ 1.53 µM). Also, the minimal effective concentration in assay [3] was 1 µg/mL; in assay [4], more than 64 µg/mL; in assay [5], more than 64 µg/mL; in [6], more than 64 µg/mL; in [7] it was 0.5 µg/mL; in [8], 0.25 µg/mL. Further, the results for the minimal effective concentration in assay [9] (setting [12]) and in assay [9] (setting [14]) were 2 µg/mL and more than 64 µg/mL, respectively.
For the compound `CC[C@H](C)[C@@H]1NC(=O)[C@@H]2CCCN2C(=O)[C@H](Cc2cccc(-c3cccc(N4CCN(C)CC4)n3)c2)N(C)C(=O)[C@H](Cc2ccccc2)NC(=O)[C@H](C(C)C)N(C)C(=O)[C@@H]([C@@H](C)CC)OC(=O)[C@H](C(C)(C)O)N(C)C(=O)[C@H](CC(C)C)NC(=O)[C@H](C(C)C)N(C)C1=O` [Compound 33] (cyclo(F[X9]PI[NMeV]L[NMeVal(β-OH)][Hmp(2R,3S)][NMeV])), the MIC in [1] was determined as 0.004 µg/mL; in assay [2], 0.06 µg/mL; in assay [3], 0.5 µg/mL; in assay [4], 0.12 µg/mL; in [5], 0.12 µg/mL; in assay [6], 0.06 µg/mL. Besides, the minimal inhibitory concentration (MIC) in [7] came to 0.03 µg/mL; in assay [8], 0.5 µg/mL; in assay [9] (setting [13]), 0.25 µg/mL; in assay [9] (setting [15]), 1 µg/mL (≈ 0.783 µM); in assay [10] (setting [16]) it was 0.03 µg/mL; in assay [10] (ATCC22019, Without Tween-80), 0.5 µg/mL (≈ 0.392 µM). Also, the minimal inhibitory concentration (MIC) in assay [11] is 0.5 µg/mL (≈ 0.392 µM). Also, the minimal effective concentration stood at 0.5 µg/mL in assay [3]; 0.03 µg/mL in assay [4]; 0.06 µg/mL in [5]; 0.06 µg/mL in [6]; 0.03 µg/mL in assay [7]; 0.12 µg/mL in assay [8]. Moreover, the minimal effective concentration stood at 0.015 µg/mL in [9] (setting [12]) and 0.5 µg/mL in assay [9] (setting [14]).

Values taken from patent US11066447B2, “Aureobasidium derivatives and methods of synthesis” (AureoGen Biosciences, Inc., priority 2016, dated 2021).
